The record followed here is US20240366594A1, “Small Molecule Inhibitors of Formation of Neutrophil-Derived Extracellular Traps (NETosis) and Uses Thereof” (The Brigham and Women's Hospital, Inc., priority 2021, published 2024).

Structures are written as SMILES.

This experiment concerns poly(I:C)-treated mice. The experiment in a line: Poly(I:C) pulmonary NET induction, mouse model of RNA viral lung infection. It counts as in vivo. The settings on record: for NET induction (CitH3 and MPO-DNA complexes in BALF and lung tissue): ELISA, FIGS. 2E-2H; for neutrophils in the BALF and in the lung: compared with poly(I:C) only, FIGS. 6D-6F; for neutrophil levels in the blood: cytofluorimetry, FIGS. 6B and 6C; for morbidity, measured as temperature drop / lung permeability (albumin content in BALF) / lung functionality (airway hyperreactivity to methacholine): ricolinostat 30 mg/kg/dose or GSK484 25 mg/kg/dose i.p., vs poly(I:C) only; for morbidity, measured as temperature drop: FIG. 2B; for lung permeability (albumin content in BALF): FIG. 2C; for lung functionality (airway hyperreactivity to methacholine): FIG. 2D. On the procedure:
Mice were intratracheally treated with 2.5 mg/kg poly(I:C) or saline daily for 4 days and euthanized 18 h post the last poly(I:C) instillation. Ricolinostat (30 mg/kg/dose) or GSK484 (25/mg/kg/dose) was administered intraperitoneally at day 2, day 4, and 3 h before the endpoint. • (B) Body temperature measurements at the endpoint. • (C) Lung permeability was measured as albumin content level in the BALF (n=5). • (D) Measure of airway hyperreactivity (AHR) in the indicated groups in response to increasing concentration of methacholine. RI, responsiveness index. • (E-H) CitH3 and MPO-DNA levels were analyzed by ELISA in BALFs (E, F) and in lungs (G, H) of mice treated as indicated. The saline group represents mice that received saline instead of poly(I:C). NT group represents mice that were challenged with poly(I:C) without receiving any drug. Statistics were calculated using one-way ANOVA (B, C, E-H) and two-way ANOVA with Tukey's analysis (D) (*p<0.05; **p<0.01; ***p<0.001; ****p<0.0001. n.s., not significant). n=10 (B, D) and 15 (E-H) for each group except for the GSK484-treated group (n=5). Gray stars represent comparison of all experimental groups with the saline-treated control. Black stars represent comparison between drug-treated groups and mice treated with poly(I:C) alone. Violin plots represent median (dashed line) with quartiles (dotted line). See also FIGS. 6A-F.
Nuclei are stained with DAPI (blue), and anti-neutrophils antibody (red). Scale bar=100 μm. • B-F) Neutrophils numbers and percentage were calculated in blood (B, C), BALFs (D, E), and lung tissues (F) of mice challenged, or not, with poly(I:C). The saline group represents mice that received saline instead of poly (I:C). NT group represent mice that were challenged with poly (I:C) without receiving any drug. Ricolinostat (30 mg/kg/dose) or GSK484 (25 mg/kg/dose) were administered intraperitoneally at day 2, day 4 and 3 h prior the endpoint. Violin plots represent median (dashed line) with quartiles (dotted line). Statistics were calculated using One-way ANOVA (*P<0.05; **P<0.01; ***P<0.001; ****P<0.0001; n.s., not significant). Grey stars represent comparison of all experimental groups with the saline control. Black stars represent comparison of drug treated groups with NT group.
NETosis was measured in bronco-alveolar lavage fluid or lung tissue homogenates as quantity of citrullinated histone H3 with Citrullinated histone H3 ELISA kit (Cayman) and as quantity of myeloperoxidase (MPO)-DNA complexes by using a modified Cell Death Detection ELISA (Roche). Briefly, anti-myeloperoxidase antibody (ThermoFisher) was used to coat a high-binding 96 multi-well plate overnight at 4° C. Following a 1 h blocking with 2% BSA/PBS solution, samples were added for an overnight incubation at 4° C. Finally, DNA was detected with Cell Death Detection kit according to manufacture instruction. Absorbance was measured at 405 nm and MPO-DNA complex levels were quantified as normalized relative to saline.
6-8 weeks-old female mice were treated daily with 2.5 mg/kg of poly (I:C) for 4 days and euthanized 18 hours post the last poly(I:C) intra-tracheal instillation, as previously described (Broggi et al., 2020). Temperatures were monitored with a rectal probe. NETosis was measured in bronco-alveolar lavage fluid and lung homogenates as quantity of citrullinated histone H3 and quantity of MPO-DNA complexes. Ricolinostat (30 mg/kg/dose) and GSK484 (25 mg/kg/dose) were administered intraperitoneally at day 2, day 4 and 3 hours prior the end point.
(ELISA stands for enzyme-linked immunosorbent assay.)

Turning to `COc1cc(C(=O)N2CC[C@@H](O)[C@@H](N)C2)cc2nc(-c3cc4ccccc4n3CC3CC3)n(C)c12` [GSK484], the “NET induction (CitH3 and MPO-DNA complexes in BALF and lung tissue)” value is “abrogated”; the “neutrophils in the BALF and in the lung” value is listed as “trend of accumulation”; the “neutrophil levels in the blood” value was “did not change significantly”; the “morbidity, measured as temperature drop” value was “significantly reduced”. In addition, the “lung permeability (albumin content in BALF)” value is “significantly preserved” and the “lung functionality (airway hyperreactivity to methacholine)” value was “significantly preserved”.

`O=C(CCCCCCNC(=O)c1cnc(N(c2ccccc2)c2ccccc2)nc1)NO` [ricolinostat]: the “NET induction (CitH3 and MPO-DNA complexes in BALF and lung tissue)” value is “abrogated”; the “neutrophils in the BALF and in the lung” value was “trend of accumulation”; the “neutrophil levels in the blood” value is recorded as “did not change significantly”; the “morbidity, measured as temperature drop” value was “significantly reduced”. The “lung permeability (albumin content in BALF)” value is recorded as “significantly preserved” and the “lung functionality (airway hyperreactivity to methacholine)” value was “significantly preserved”. In addition, under “outcompeted i.e. increased survival of neutrophils in the BALF”, the “activity compared with GSK484 in all the conditions tested” value was “phenocopied, and in some cases outcompeted”.
